Reference: BindingDB's records for doi:10.1021/jm00053a023 (Monsanto, 1993)

Molecular target: endothelin converting enzyme (Oryctolagus cuniculus)
Test: Inhibition of endothelin converting enzyme in an RIA assay using big ET-1 as substrate (value corresponds to <25% inhibition when assayed at a 100 uM screening concentration)

IC50 [µM] | SMILES
48 | CC(C)C[C@H](NP(=O)(O)OC1CCCCC1)C(=O)N[C@@H](Cc1c[nH]c2ccccc12)C(=O)O [2-[2-(Cyclohexyloxy-hydroxy-phosphorylamino)-4-methyl-pentanoylamino]-3-(1H-indol-3-yl)-propionic acid]
109 | CCOP(=O)(O)N[C@@H](CC(C)C)C(=O)N[C@@H](Cc1c[nH]c2ccccc12)C(=O)O [2-[2-(Ethoxy-hydroxy-phosphorylamino)-4-methyl-pentanoylamino]-3-(1H-indol-3-yl)-propionic acid]
61 | CC(C)C[C@H](NP(=O)(O)Cc1ccccc1)C(=O)N[C@@H](Cc1c[nH]c2ccccc12)C(=O)O [2-[2-(Hydroxy-benzyl-phosphorylamino)-4-methyl-pentanoylamino]-3-(1H-indol-3-yl)-propionic acid]
